Measured values taken from patent publication US11576901B2, “Methods for treating viral infection” (HOWARD UNIVERSITY, priority 2016, dated 2023).

Legend:
[1] = system: HIV1 modified pNL4-3.Luc.R-E-virus; assay: Western assay of HIV p24 gag expression in infected CEM T cells; format: cell-based; settings: Western assay with HIV p24 antibody, FIG. 4
Excerpt: The ability of a compound in accordance with General Formula 1, including derivatives in accordance with General Formulae 1-1 to 1-20, or pharmaceutically acceptable salts thereof, to inhibit the expression of at least a portion of a virus genome containing an IRES sequence can be also be determined by assessing the expression of a native protein within a viral genome. In some embodiments, the ability of a compound or pharmaceutically acceptable salt to inhibit expression of native protein can be assessed by using antibodies for a protein normally expressed from the virus genome. For example, HIV p24 gag is a protein normally expressed by HIV1 that can be detected using the HIVI p24 antibody. Accordingly, compounds in accordance with General Formula 1, including derivatives in accordance with any of General Formulae 1-1 to 1-20, or pharmaceutically acceptable salts thereof, can be assessed for the ability to inhibit proliferation of the HIV1 by infecting CEM T cells with the HIV1 modified pNL4-3.Luc.R-E-virus and assessing the expression of HIV p24 gag with the HIV p24 antibody. […]
A compound or salt may be wrongly classified as capable of inhibiting expression of at least a portion of a virus genome containing an IRES sequence due to unequal loading of proteins within an assay. […] In some embodiments, equivalent protein loading can be assessed by ponceau staining. […]

HSV-1 = assay: Plaque forming assay, Hep-2 cell monolayers infected with HSV-1; format: cell-based; settings: Hep-2 cells, 100 μM
Protocol: The ability of a virus to infect cells can be assessed using a plaque assay. In a plaque assay, an infected cell culture is grown under a nutrient gel. During culturing, the virus being study infects cells and replicates. However, the spread of virus to other cells is limited by the overlaying nutrient gel. As such, replicated virus released from one infected cell can only infect neighboring cells. The spread of virus amongst neighboring cells creates a plaque that can be visualized by staining. By counting the visible plaques, the amount of plaque forming units (pfu) per mL can be determined. If cells treated with a compound display a reduced amount of pfu compared to cells not treated with the compound after being infected with same amount of viral particles, then the reduction in pfu would have to be result of the ability of the […] virus. Thus, the ability of a compound in accordance with General Formula 1, including derivatives in accordance with any of General Formulae 1-1 to 1-20, to inhibit the ability of HSV-1 to proliferate can be assessed with a plaque assay.
Hep-2 cell monolayers were placed in well plates. The plated Hep-2 cells were treated with either DSMO as a control, 100 μM SD-29 or 100 μM SD29-12. A total of 6 well plates were prepared for each treatment condition. To each treated well plate an HSV-1 infecting solution comprising 1 mL of supernatants containing of the same amount of serially diluted HSV-1 particles were added. Accordingly, the treated well plates were infected with infection solutions containing the same amount of HSV-1 particles. After adsorption for 2 hours, the medium was removed and the treated cells were washed twice with serum-free DMEM and overlaid with phenol-free DMEM containing 5% FCS, 0.5% low-melting point agarose (GIBCO), and 1% penicillin-streptomycin. After either 0, 6, 12, 24 hours, the plaques present in each treated well plate were stained red and the number of plaques presented counted. Table 1 reports the mean plaque forming unit (pfu) determined for each treated well plate after averaging the number of pfu from the different plates receiving the same treatment.

SMILES	melting point [°C]	expression of HIV p24 gag [1]	mean plaque forming unit (pfu) (HSV-1; 0 hpi)	mean plaque forming unit (pfu) (HSV-1; 6 hpi)	mean plaque forming unit (pfu) (HSV-1; 12 hpi)	mean plaque forming unit (pfu) (HSV-1; 24 hpi)
Nn1c(-c2cccc(F)c2)n[nH]c1=S [5e, 4-amino-5-(3-fluorophenyl)-2,4-dihydro-3H-1,2,4-triazole-3-thione]	220	–	–	–	–	–
COc1ccc(-c2nnc(SCC(=O)O)n2N)cc1 [SD-29-12]	–	does not inhibit expression of HIV p24 gag	0	380	3600	2600000
